Results published in the supplement of paper PMC10307832.

What was measured:
Assay in all cases: relative viability (nuclei count vs DMSO), 5 days (fraction); higher = more cells survive
Tipifarnib + Pictilisib = compound: Cn1cncc1[C@@](N)(c1ccc(Cl)cc1)c1ccc2c(c1)c(-c1cccc(Cl)c1)cc(=O)n2C [Tipifarnib] + CS(=O)(=O)N1CCN(Cc2cc3nc(-c4cccc5[nH]ncc45)nc(N4CCOCC4)c3s2)CC1 [Pictilisib] (partner 1 µM)
Summary of the method: (§1)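 Relative viability divides the nuclei count in treated wells by that in vehicle wells. Lung cancer cell lines were seeded in 1536-well plates, dosed by pin tool the next day, and fixed and stained after 5 days in one step with final 0.05% Triton X-100, 1% formaldehyde and 1 ug/ml Hoechst. Dosing was a single drug or a fixed anchor-drug dose plus five library-drug doses (not always all listed) in √10 steps, and values are medians of duplicate plates imaged at 4×.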

Tipifarnib + Bortezomib = compound: Cn1cncc1[C@@](N)(c1ccc(Cl)cc1)c1ccc2c(c1)c(-c1cccc(Cl)c1)cc(=O)n2C [Tipifarnib] + CC(C)C[C@H](NC(=O)[C@H](Cc1ccccc1)NC(=O)c1cnccn1)B(O)O [Bortezomib] (partner 0.002 µM)
Summary of the method: as §1

Tipifarnib + Foretinib = compound: Cn1cncc1[C@@](N)(c1ccc(Cl)cc1)c1ccc2c(c1)c(-c1cccc(Cl)c1)cc(=O)n2C [Tipifarnib] + COc1cc2c(Oc3ccc(NC(=O)C4(C(=O)Nc5ccc(F)cc5)CC4)cc3F)ccnc2cc1OCCCN1CCOCC1 [Foretinib] (partner 0.25 µM)
Summary of the method: as §1

Tipifarnib + Palbociclib = compound: Cn1cncc1[C@@](N)(c1ccc(Cl)cc1)c1ccc2c(c1)c(-c1cccc(Cl)c1)cc(=O)n2C [Tipifarnib] + CC(=O)c1c(C)c2cnc(Nc3ccc(N4CCNCC4)cn3)nc2n(C2CCCC2)c1=O [Palbociclib] (partner 0.5 µM)
Summary of the method: as §1

Cell Line	relative viability (Tipifarnib + Pictilisib; first compound 0.01 µM)	relative viability (Tipifarnib + Pictilisib; first compound 0.03162 µM)	relative viability (Tipifarnib + Pictilisib; first compound 0.1 µM)	relative viability (Tipifarnib + Pictilisib; first compound 0.3162 µM)	relative viability (Tipifarnib + Pictilisib; first compound 1 µM)	relative viability (Tipifarnib + Bortezomib; first compound 0.01 µM)	relative viability (Tipifarnib + Bortezomib; first compound 0.03162 µM)	relative viability (Tipifarnib + Bortezomib; first compound 0.1 µM)	relative viability (Tipifarnib + Bortezomib; first compound 0.3162 µM)	relative viability (Tipifarnib + Bortezomib; first compound 1 µM)	relative viability (Tipifarnib + Foretinib; first compound 0.01 µM)	relative viability (Tipifarnib + Foretinib; first compound 0.03162 µM)	relative viability (Tipifarnib + Foretinib; first compound 0.1 µM)	relative viability (Tipifarnib + Foretinib; first compound 0.3162 µM)	relative viability (Tipifarnib + Foretinib; first compound 1 µM)	relative viability (Tipifarnib + Palbociclib; first compound 0.01 µM)	relative viability (Tipifarnib + Palbociclib; first compound 0.03162 µM)	relative viability (Tipifarnib + Palbociclib; first compound 0.1 µM)	relative viability (Tipifarnib + Palbociclib; first compound 0.3162 µM)	relative viability (Tipifarnib + Palbociclib; first compound 1 µM)
LCLC-103H	0.566	0.606	0.617	0.491	0.469	1.06	0.79	0.973	0.832	0.581	0.865	0.869	0.59	0.548	0.418	0.483	0.384	0.491	0.411	0.571
LOU-NH91	0.517	0.446	0.499	0.501	0.388	0.436	0.42	0.558	0.534	0.457	0.943	1	0.83	0.695	0.693	0.494	0.516	0.592	0.541	0.58
LU99A	0.29	0.264	0.219	0.208	0.193	0.803	0.712	0.477	0.53	0.314	0.757	0.651	0.653	0.497	0.395	0.359	0.349	0.264	0.216	0.237
LXF-289	0.86	0.793	0.735	0.699	0.464	0.978	0.889	0.948	0.874	0.706	0.998	0.966	0.858	0.825	0.824	0.615	0.586	0.591	0.549	0.565
NCI-H23	0.469	0.448	0.312	0.268	0.232	1.27	0.751	0.636	0.36	0.25	1.04	0.873	0.759	0.688	0.511	0.577	0.397	0.405	0.35	0.341
NCI-H322M	0.533	0.543	0.47	0.464	0.481	1.27	1.32	1.18	1.05	0.947	0.964	1.15	0.849	0.876	0.783	0.521	0.548	0.515	0.459	0.508
NCI-H441	0.489	0.461	0.463	0.328	0.212	0.685	0.2	0.432	0.207	0.185	0.955	0.699	0.73	0.72	0.594	0.197	0.161	0.188	0.144	0.164
NCI-H460	0.42	0.396	0.379	0.275	0.126	0.957	0.605	0.369	0.248	0.036	1	0.872	0.624	0.581	0.207	0.178	0.187	0.096	0.0611	0.0359
NCI-H520	0.283	0.227	0.243	0.275	0.166	0.506	0.203	0.636	0.246	0.173	0.978	0.614	0.681	0.506	0.351	0.181	0.238	0.254	0.162	0.2
NCI-H647	0.403	0.416	0.364	0.406	0.167	0.911	0.59	0.678	0.589	0.273	1.44	0.78	0.95	0.379	0.534	0.406	0.288	0.297	0.159	0.138
NCI-H650	1.14	0.746	0.647	0.557	0.351	0.781	0.36	0.697	0.539	0.346	1.21	0.999	0.934	0.749	0.704	0.368	0.321	0.379	0.269	0.233
NCI-H661	0.441	0.535	0.419	0.474	0.326	0.967	0.818	0.569	0.598	0.744	1.03	1.03	0.936	0.793	0.83	0.435	0.349	0.36	0.315	0.35
NCI-H727	0.625	0.438	0.484	0.389	0.444	0.893	0.802	0.856	0.656	0.607	1.04	0.875	0.795	0.976	0.944	0.693	0.596	0.599	0.652	0.615
NCI-H838	0.404	0.368	0.324	0.3	0.279	0.713	0.733	0.589	0.439	0.41	1.01	0.805	0.848	0.695	0.75	0.223	0.206	0.214	0.187	0.195
NCI-H1355	0.439	0.401	0.356	0.301	0.293	1.17	0.992	0.806	0.722	0.813	1.12	0.94	0.855	0.694	0.734	0.399	0.398	0.351	0.325	0.322
NCI-H1437	0.457	0.466	0.45	0.343	0.212	0.54	0.554	0.403	0.41	0.306	1.32	1.29	1.38	0.955	1.29	0.327	0.357	0.336	0.288	0.303
